Results published in PubChem BioAssay (NCI).
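All cell lines were grown in 96-well plates and treated with compound for 48 hours. Abbreviation: GI50, concentration required for 50% inhibition of growth. TGI marks complete inhibition of growth.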

Columns and labels:
Test in all cases: NCI-60 cell line screen, 48 h
HCT-15 colon = tested on: HCT-15 colon
NCI-H23 lung = tested on: NCI-H23 lung
SK-MEL-5 melanoma = tested on: SK-MEL-5 melanoma
K-562 leukemia = tested on: K-562 leukemia
KM12 colon = tested on: KM12 colon
UACC-257 melanoma = tested on: UACC-257 melanoma
HOP-92 NSCLC = tested on: HOP-92 NSCLC
SK-MEL-2 melanoma = tested on: SK-MEL-2 melanoma
A549 NSCLC = tested on: A549 NSCLC
SF-295 CNS = tested on: SF-295 CNS

SMILES | TGI (HCT-15 colon) | TGI (NCI-H23 lung) | TGI (SK-MEL-5 melanoma) | TGI (K-562 leukemia) | TGI (KM12 colon) | TGI (UACC-257 melanoma) | TGI (HOP-92 NSCLC) | TGI (SK-MEL-2 melanoma) | TGI (A549 NSCLC) | TGI (SF-295 CNS) | GI50 (HCT-15 colon) | GI50 (NCI-H23 lung) | GI50 (SK-MEL-5 melanoma) | GI50 (K-562 leukemia) | GI50 (KM12 colon) | GI50 (UACC-257 melanoma) | GI50 (HOP-92 NSCLC) | GI50 (SK-MEL-2 melanoma) | GI50 (A549 NSCLC) | GI50 (SF-295 CNS)
O=C(CSCC(=O)N/N=C/c1cccc(O)c1)N/N=C/c1cccc(O)c1 | > 100 µM | > 100 µM | > 100 µM | > 100 µM | > 100 µM | > 100 µM | > 100 µM | > 100 µM | > 100 µM | > 100 µM |  |  |  |  |  |  |  |  |  | 
CCOC(=O)c1c2c(n(-c3ccc(C)cc3)c1C)-c1ccccc1C(=O)C2(C(=O)OCC)C(=O)OCC | > 100 µM | > 100 µM | 50.4 µM | > 59.4 µM | > 100 µM | > 100 µM | 88.6 µM | > 88.5 µM | > 100 µM | > 100 µM |  |  |  |  |  |  |  |  |  | 
O=c1[nH]c2[nH]c(=S)[nH]c(=S)c2[nH]1 | > 100 µM | > 100 µM | > 100 µM | > 100 µM | > 100 µM | > 100 µM | > 100 µM | > 100 µM | > 100 µM | > 100 µM |  |  |  |  |  |  |  |  |  | 
CN1C(=O)CC(=O)N1/C(=C/c1ccccc1)c1ccccc1 |  | > 100 µM | > 100 µM | > 100 µM | > 100 µM | > 100 µM | > 100 µM | > 100 µM | > 100 µM | > 100 µM |  |  |  |  |  |  |  |  |  | 
COc1ccc2nc3cc(Cl)ccc3c(NC(C)CCCN(CCCl)CCCl)c2c1 (stereo not drawn) | 6.56 µM | 2.89 µM | 7.89 µM | 2.3 µM | 4.6 µM | 14.9 µM | 3.62 µM | 4.54 µM | 7.04 µM | 10.6 µM |  |  |  |  |  |  |  |  |  | 
CSCCC(C(=O)O)N(C)C (stereo not drawn) | > 100 µM | > 100 µM | > 100 µM | > 100 µM | > 100 µM | > 100 µM | > 100 µM | > 100 µM | > 100 µM | > 100 µM |  |  |  |  |  |  |  |  |  | 
C=CCNC(=O)C(C)C1CCC2(C)C=CC(=O)C(C)=C2C1O (stereo not drawn) | > 100 µM | > 100 µM | > 100 µM | > 100 µM | > 100 µM | > 100 µM | > 100 µM | > 100 µM | > 100 µM | > 100 µM |  |  |  |  |  |  |  |  |  | 
Oc1ccc(C(=C(Br)c2ccccc2)c2ccc(O)cc2)cc1 | 14.3 µM | 23.7 µM | 12.5 µM | 9.07 µM | 13.5 µM | 25.2 µM | 22.5 µM | 18.3 µM | 19.4 µM | 25.6 µM |  |  |  |  |  |  |  |  |  | 
C=C(C#N)C(=O)OCC(CC)CC.C=C(C#N)C(=O)OCC(CC)CC.CS(C)=O.CS(C)=O.Nc1c(N=Nc2ccc(-c3ccc(N=Nc4cc(S(=O)(=O)[O-])c5ccccc5c4N)cc3)cc2)cc(S(=O)(=O)[O-])c2ccccc12.[Pt+2] | > 69.3 µM | > 100 µM | > 77.4 µM | > 100 µM | > 100 µM | 31.8 µM | 45.4 µM | 50.4 µM | > 100 µM | > 100 µM | 33.2 µM | 40.7 µM | 34.1 µM | 32.6 µM | 46.6 µM | 17.4 µM | 19.6 µM | 21.2 µM | > 86.8 µM | 98.4 µM
Cc1ccc(S(=O)(=O)OC2CC(C(C)(C)C)CCC2c2ccccc2)cc1 (stereo not drawn) | > 100 µM | > 100 µM | > 100 µM | > 100 µM | > 100 µM | > 100 µM | > 100 µM | > 100 µM | > 100 µM | > 100 µM |  |  |  |  |  |  |  |  |  | 
O=C1c2cc(O)c(O)cc2O[C@H](c2ccc(O)c(O)c2)[C@H]1O | > 100 µM | > 100 µM | > 100 µM | > 100 µM | > 100 µM | > 100 µM | > 100 µM | > 100 µM | > 100 µM | > 100 µM |  |  |  |  |  |  |  |  |  | 
O=C1c2ccccc2C(=O)c2[nH]cnc21 | > 100 µM | > 100 µM | 34.2 µM | > 100 µM | > 100 µM | 54.2 µM |  | > 100 µM | > 100 µM | > 100 µM |  |  |  |  |  |  |  |  |  | 
CCN(CC)CCNc1ccc2ncn3c4ccc(O)cc4c(=O)c1c23 | 13 µM | 13.8 µM | 10.4 µM | 34.4 µM | 10.6 µM | 21.2 µM | 12.8 µM | 21.4 µM | 7 µM | 15.1 µM |  |  |  |  |  |  |  |  |  | 
